Here are results for 16 compounds from patent publication US11098040B2, “Compounds and methods of use” (Ferro Therapeutics, Inc., priority 2018, dated 2021).

In one data set the test system is SJSA-1. The experiment in a line: Cell proliferation (Alamar Blue) assay, SJSA-1 osteosarcoma, with/without ferrostatin. It is filed as cell-based, human. To be noted: Homo sapiens, SJSA-1, Cell Line SJSA-1; read-out: IC50. As for the experimental part: Cell viability assay was performed to assess the potency of the compounds in human cancer cell lines 786-O (renal cell carcinoma) and SJSA-1 (osteosarcoma). Additional cell lines, such as those described above in Example 4 as well as various others, e.g., pancreatic cancer cell lines (Panc 02.13, BxPC-3, Panc 12, Panc 02.03, Panc 6.03, PSN-1, HPAC, and Capan-1) and prostate cancer cell lines (PC-3, DU145, 22Rv1, NCI-H660, BPH1, LNCaP, BM-1604, and MDA PCa 2b), were tested for select compounds as shown in Table 25.
Cells (SJSA-1, 786-O and A431) were seeded (5000 cells/100 μL/well) in 96-well tissue culture plate and incubated at 37° C./5% CO2 for 16-24 hours. The cells were then treated with compounds (25 μL of 5×). The compound concentrations were 10-0.0005 μM prepared in 3-fold serial dilutions with final DMSO concentration of 1%. The plates were then incubated for 24 h at 37° C./5% CO2 in a moist environment. Then Alamar Blue™ reagent (final concentration 1×-12.5 μL) was added to each well and incubated for 1.5 hours at 37° C./5% CO2. The plates were read on fluorescence reader at 540 nm excitation and 590 nm emission wavelengths. The IC50 values were subsequently determined using a sigmoidal dose-response curve (variable slope) in GraphPad Prism® 5 software.
Studies have shown that lipophilic antioxidants, such as ferrostatin, can rescue cells from GPX4 inhibition-induced ferroptosis. For instance, mesenchymal state GPX4-knockout cells can survive in the presence of ferrostatin, however, when the supply of ferrostatin is terminated, these cells undergo ferroptosis (see, e.g., Viswanathan et al., Nature 547:453-7, 2017). […] Accordingly, the ability of a molecule to induce ferroptotic cancer cell death, and that such ability is admonished by the addition of ferrostatin, is clear indication that the molecule is an GPX4 inhibitor.
(The colour change of resazurin is a common sign of viable cells or microbes.)

Data set [1] in a line: Whole blood stability, human. It is filed as in vitro ADME. The text has this:
(§1) The results of the assay on stability in blood and IC50 values for pancreatic cancer cell line KP4 are given below in Table 24.

The nature of data set [2]: Whole blood stability, mouse. It is filed as in vitro ADME.
Description: as §1

The next data set deals with KP4. The experiment in a line: Cell viability assay (CellTiter Glo), pancreatic ductal adenocarcinoma KP4. Conditions: Homo sapiens, KP-4, 96 h, pancreatic cancer cell line KP4, 96 hours, CellTiter Glo; read-out: IC50 μM KP4. It is filed as cell-based, human. An outline of the steps: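 Luminescent ATP readout (CellTiter Glo) after 96 h compound exposure, normalized to DMSO-treated cells as maximum. Compounds ran in duplicate, nine 3-fold steps from 30 μM down to 4.6 nM, final DMSO ≤0.25%; KP4 plated overnight at 1,000–10,000 cells/well. Outputs: IC50, relative IC50 or % top inhibition.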

Bounds are passed on as bounds.

A word on the IC50: it is the concentration needed to halve the response being measured. For the compound `C[C@H]1Cc2c([nH]c3ccccc23)C(c2ccc(N3CCOCC3)nc2)N1C(=O)CCl` (stereo partly shown) [Example 124], in the data set on SJSA-1, the IC50 was determined as 201 nM.
`CC[C@H]1Cc2c([nH]c3ccccc23)[C@@H](c2ccc(C(=O)OC)cc2)N1C(=O)CCl` [Compound 99]: the “Whole Blood Stability % Remaining at 37° C. Human” value worked out at 100.0% in data set [1] (0 min), 94.5% in data set [1] (30 min) and 67.9% in data set [1] (60 min). The “Whole Blood Stability % Remaining at 37° C. Mouse” value was found to be 100.0% in data set [2] (0 min), 4.0% in data set [2] (30 min) and 0.0% in data set [2] (60 min). Besides, the IC50 in the data set on KP4 is more than 1 µM.
Take `COC(=O)[C@H]1Cc2c([nH]c3ccccc23)[C@@H](c2ccc(OC(=O)C(C)(C)C)cc2)N1C(=O)CCl` [Compound 13a]: the “Whole Blood Stability % Remaining at 37° C. Human” value in data set [1] (0 min) was 100.0%; in data set [1] (30 min), 56.6%; in data set [1] (60 min), 59.9%. Further, the “Whole Blood Stability % Remaining at 37° C. Mouse” value is listed as 100.0% in data set [2] (0 min), 0.0% in data set [2] (30 min) and 0.0% in data set [2] (60 min). For the same compound, the IC50 in the data set on KP4 was 0.5 to 1 µM.
As to `COC(=O)c1ccc([C@H]2c3[nH]c4ccc(Br)cc4c3C[C@H](C(=O)OC)N2C(=O)CCl)cc1` [Compound 88], the “Whole Blood Stability % Remaining at 37° C. Human” value is given as 100.0% in data set [1] (0 min), 56.4% in data set [1] (30 min) and 27.0% in data set [1] (60 min). The “Whole Blood Stability % Remaining at 37° C. Mouse” value in data set [2] (0 min) turned out to be 100.0%; in data set [2] (30 min) it was 0.0%; in data set [2] (60 min), 0.0%. The IC50 in the data set on KP4 was less than 0.01 µM.
As to `COC(=O)[C@H]1Cc2c([nH]c3ccccc23)[C@H](c2ccc(C(=O)NCCN)cc2)N1C(=O)CCl` [Compound 15], the results for the “Whole Blood Stability % Remaining at 37° C. Human” value in data set [1] (0 min), in data set [1] (30 min) and in data set [1] (60 min) were 100.0%, 72.7% and 66.8%, respectively. The “Whole Blood Stability % Remaining at 37° C. Mouse” value was 100.0% in data set [2] (0 min), 83.0% in data set [2] (30 min) and 50.2% in data set [2] (60 min). In the data set on KP4, the IC50 lay in the range of 0.1 to 0.5 µM.
For `COC(=O)[C@H]1Cc2c([nH]c3ccccc23)[C@H](c2ccc(C(=O)NC(C(=O)O)C(C)(C)C)cc2)N1C(=O)CCl` (single isomer, unassigned) [Compound 10], the “Whole Blood Stability % Remaining at 37° C. Human” value in data set [1] (0 min) is recorded as 100.0%; in data set [1] (30 min), 84.0%; in data set [1] (60 min) it was 54.3%. Further, the “Whole Blood Stability % Remaining at 37° C. Mouse” value in data set [2] (0 min) turned out to be 100.0%; in data set [2] (30 min) it was 82.2%; in data set [2] (60 min), 65.0%. In the data set with KP4, the half-maximal inhibitory concentration (IC50) was 0.5 to 1 µM.
Take `O=C(O)c1ccc([C@H]2c3[nH]c4ccccc4c3C[C@H](C(=O)O)N2C(=O)CCl)cc1` [Compound 5]: the “Whole Blood Stability % Remaining at 37° C. Human” value in data set [1] (0 min) came to 100.0%; in data set [1] (30 min) it was 106.3%; in data set [1] (60 min), 82.0%. Besides, the “Whole Blood Stability % Remaining at 37° C. Mouse” value in data set [2] (0 min) was 100.0%; in data set [2] (30 min) it was 86.3%; in data set [2] (60 min), 67.9%. The IC50 in the data set on KP4 was more than 1 µM.
In the case of `COC(=O)[C@H]1Cc2c([nH]c3ccccc23)[C@H](c2ccc(C(=O)O)cc2)N1C(=O)CCl` [Compound 4], the results for the “Whole Blood Stability % Remaining at 37° C. Human” value in data set [1] (0 min), in data set [1] (30 min) and in data set [1] (60 min) were 100.0%, 59.3% and 57.9%, respectively. Also, the “Whole Blood Stability % Remaining at 37° C. Mouse” value in data set [2] (0 min) was found to be 100.0%; in data set [2] (30 min), 76.6%; in data set [2] (60 min) it was 63.9%. Also, the IC50 with KP4 is more than 1 µM.
With `COC(=O)[C@H]1Cc2c([nH]c3ccccc23)[C@H](c2ccc(C(=O)OCC3(C)CC3)cc2)N1C(=O)CCl` [Compound 84], the “Whole Blood Stability % Remaining at 37° C. Human” value in data set [1] (0 min) amounted to 100.0%; in data set [1] (30 min), 87.7%; in data set [1] (60 min), 58.3%. Besides, the figures for the “Whole Blood Stability % Remaining at 37° C. Mouse” value in data set [2] (0 min), in data set [2] (30 min) and in data set [2] (60 min) were 100.0%, 0.0% and 0.0%, respectively. Besides, in the data set on KP4, the IC50 was less than 0.01 µM.
Consider `CN(C)C(=O)[C@H]1Cc2c([nH]c3ccccc23)[C@H](c2ccc(S(C)(=O)=O)cc2)N1C(=O)CCl` [Compound 59], for which the “Whole Blood Stability % Remaining at 37° C. Human” value in data set [1] (0 min) is 100.0%; in data set [1] (30 min), 48.9%; in data set [1] (60 min), 51.5%. Also, the “Whole Blood Stability % Remaining at 37° C. Mouse” value in data set [2] (0 min) is 100.0%; in data set [2] (30 min) it was 97.9%; in data set [2] (60 min) it was 65.6%. In the data set on KP4, the IC50 was 0.1 to 0.5 µM.
Turning to `COC(=O)c1ccc([C@H]2c3[nH]c4ccc(Cl)cc4c3C[C@H](C(=O)OC)N2C(=O)CCl)cc1` [Compound 93], the “Whole Blood Stability % Remaining at 37° C. Human” value in data set [1] (0 min) is recorded as 100.0%; in data set [1] (30 min), 66.3%; in data set [1] (60 min), 44.9%. Further, the “Whole Blood Stability % Remaining at 37° C. Mouse” value stood at 100.0% in data set [2] (0 min), 0.0% in data set [2] (30 min) and 0.0% in data set [2] (60 min). Moreover, in the data set on KP4, the IC50 lay within 0.1 to 0.5 µM.
On to `CC(C)N(C(=O)[C@H]1Cc2c([nH]c3ccccc23)[C@H](c2ccc(C(=O)N(C)C)cc2)N1C(=O)CCl)C(C)C` [Compound 39], for which the “Whole Blood Stability % Remaining at 37° C. Human” value worked out at 100.0% in data set [1] (0 min), 64.5% in data set [1] (30 min) and 50.4% in data set [1] (60 min). Further, the “Whole Blood Stability % Remaining at 37° C. Mouse” value in data set [2] (0 min) came to 100.0%; in data set [2] (30 min), 73.2%; in data set [2] (60 min), 60.4%. In addition, the IC50 in the data set with KP4 was in the range of 0.1 to 0.5 µM.
On to `CN(C)C(=O)[C@H]1Cc2c([nH]c3ccccc23)[C@H](c2ccc(C(=O)OC(C)(C)C)cc2)N1C(=O)CCl` [Compound 21], for which the figures for the “Whole Blood Stability % Remaining at 37° C. Human” value in data set [1] (0 min), in data set [1] (30 min) and in data set [1] (60 min) were 100.0%, 49.7% and 24.3%, respectively. Besides, the “Whole Blood Stability % Remaining at 37° C. Mouse” value in data set [2] (0 min) turned out to be 100.0%; in data set [2] (30 min), 14.0%; in data set [2] (60 min), 3.2%. For the same compound, in the data set on KP4, the IC50 was in the range of 0.01 to 0.1 µM.
Turning to `COC(=O)[C@H]1Cc2c([nH]c3ccccc23)[C@H](c2ccc(S(=O)(=O)N[C@]34C[C@H]5C[C@H](C[C@H](C5)C3)C4)cc2)N1C(=O)CCl` [Compound 24], the “Whole Blood Stability % Remaining at 37° C. Human” value amounted to 100.0% in data set [1] (0 min), 61.7% in data set [1] (30 min) and 50.2% in data set [1] (60 min). Besides, the “Whole Blood Stability % Remaining at 37° C. Mouse” value in data set [2] (0 min) turned out to be 100.0%; in data set [2] (30 min), 62.0%; in data set [2] (60 min) it was 37.0%. Further, in the data set on KP4, the half-maximal inhibitory concentration (IC50) was less than 0.01 µM.
`C[C@H]1Cc2c([nH]c3ccccc23)[C@@H](c2ccc(C(=O)NC34CC(C3)C4)cc2)N1C(=O)CCl` [Compound 111]: the “Whole Blood Stability % Remaining at 37° C. Human” value was found to be 100.0% in data set [1] (0 min), 96.1% in data set [1] (30 min) and 68.1% in data set [1] (60 min). Also, the “Whole Blood Stability % Remaining at 37° C. Mouse” value in data set [2] (0 min) turned out to be 100.0%; in data set [2] (30 min), 79.2%; in data set [2] (60 min), 87.7%. Besides, the IC50 in the data set on KP4 was 0.5 to 1 µM.
As to `COC(=O)[C@H]1Cc2c([nH]c3ccccc23)[C@H](c2ccc(C(=O)NCCNC(=O)OC(C)(C)C)cc2)N1C(=O)CCl` [Compound 16], the “Whole Blood Stability % Remaining at 37° C. Human” value in data set [1] (0 min) was 100.0%; in data set [1] (30 min), 54.3%; in data set [1] (60 min), 36.9%. Further, the “Whole Blood Stability % Remaining at 37° C. Mouse” value in data set [2] (0 min) is reported as 100.0%; in data set [2] (30 min), 84.1%; in data set [2] (60 min), 63.3%. In addition, the IC50 in the data set with KP4 was less than 0.01 µM.
